We go through two compounds from patent US7785879B1, “Pregnane X receptor compositions, crystals and uses thereof” (Schering Corporation, priority 2005, dated 2010).

One series concerns the target T1, PXR (PXR-LBD-L10-SRC) (Homo sapiens, UniProt O75469).
T1 sequence (O75469 with tags, fused parts or gaps): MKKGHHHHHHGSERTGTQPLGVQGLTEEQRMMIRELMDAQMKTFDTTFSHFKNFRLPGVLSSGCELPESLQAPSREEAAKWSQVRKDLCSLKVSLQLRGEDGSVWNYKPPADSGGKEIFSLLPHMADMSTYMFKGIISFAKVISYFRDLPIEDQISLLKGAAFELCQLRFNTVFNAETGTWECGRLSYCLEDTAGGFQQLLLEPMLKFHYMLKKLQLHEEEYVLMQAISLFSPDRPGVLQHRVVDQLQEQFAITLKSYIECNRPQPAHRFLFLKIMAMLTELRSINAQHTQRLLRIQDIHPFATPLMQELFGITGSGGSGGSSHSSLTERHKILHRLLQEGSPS
Briefly: Temperature-dependent circular dichroism, stabilization of PXR-LBD-L10-SRC. To be noted: human, pH 7.9. As for the experimental part: (§1) The CD is a function of wavelength.
(§2) PXR-LBD-L10-SRC was expressed and purified essentially as set forth above. […] Stabilization of PXR-LBD-L10-SRC in the presence of various substances was measured by temperature-dependent circular dichroism. PXR-LBD-L10-SRC was assayed under the following conditions:
(§3) Buffer: 25 mM Hepes, pH 7.9, 150 mM NaCl, 5% glycerol, 10 mM BME,
(§4) heating ramp at 2° C./min
(§5) temperature range: 30-80° C.
On the technique in general: Circular dichroism is the unequal absorption of left and right circularly polarised light.

Another series addresses T2, PXR-LBD-L10-SRC (Homo sapiens, UniProt O75469).
T2 sequence (O75469 with tags, fused parts or gaps): T1 sequence (O75469 with tags, fused parts or gaps)
Described as above. To be noted: 25 uM compound. The protocol:
as §1, §2, §3, §4, §5

Another series deals with T3, PXR (Homo sapiens, UniProt O75469).
T3 sequence (O75469 1-434): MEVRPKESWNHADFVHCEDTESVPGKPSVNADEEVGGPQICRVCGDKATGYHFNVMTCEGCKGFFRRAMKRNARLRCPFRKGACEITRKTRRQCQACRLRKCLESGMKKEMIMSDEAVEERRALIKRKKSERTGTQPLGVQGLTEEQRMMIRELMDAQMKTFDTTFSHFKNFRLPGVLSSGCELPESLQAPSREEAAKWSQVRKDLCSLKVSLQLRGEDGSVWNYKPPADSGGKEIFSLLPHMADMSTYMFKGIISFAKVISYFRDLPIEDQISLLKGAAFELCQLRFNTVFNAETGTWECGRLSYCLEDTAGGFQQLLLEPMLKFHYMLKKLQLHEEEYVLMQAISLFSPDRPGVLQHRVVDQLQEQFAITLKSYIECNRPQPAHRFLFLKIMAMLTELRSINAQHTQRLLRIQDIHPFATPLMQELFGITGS
To be noted: Table 2; read-out: reported Kd; cited from earlier work.

For series [1], the target named is T4, human PXR-LBD-L10-SRC (SEQ ID NO: 24) (Homo sapiens, UniProt O75469).
T4 sequence (O75469 with tags, fused parts or gaps): T1 sequence (O75469 with tags, fused parts or gaps)
Briefly: Ligand binding assay (radioligand, filter plate). To be noted: conclusion from the radioligand binding tables.
Experimental: Chemilluminescence can be detected, for example, in a scintillation counter (Packard Top-counter). Specifically, the bound complex can be contacted with scintillant and then analyzed for the occurrence of scintillation.
After one hour of incubation at room temperature, the mixture was transferred to an imobilon multiScreen filter plate (Millipore). The plate was washed five times with PBS and dried under vacuum. The dried plate was added Opti-Fluor Scitillation cocktail before counting in a Parkard Top-counter.

Consider `O=C1C(CC[S+]([O-])c2ccccc2)C(=O)N(c2ccccc2)N1c1ccccc1` (stereo not drawn) [sulfopyrole], for which, at PXR (PXR-LBD-L10-SRC), the ΔTm at 25 µM stood at 2.3 °C.

Consider `Clc1ccccc1C(c1ccccc1)(c1ccccc1)n1ccnc1` [Clotrimazole], for which the Tm on PXR-LBD-L10-SRC (2.5 μM protein, 225 nm, apo enzyme Tm 52.9 ± 0.05) is given as 58.5 C. Moreover, the ΔTm on PXR-LBD-L10-SRC (vs PXR-LBD-L10-SRC apo enzyme) was 5.6 C. The Kd on PXR-LBD-L10-SRC (from CD thermal denaturation) was 200 nM; on PXR, 300 nM. The “binding activity of PXR” value in series [1] is given as “significant”.

What is called Kd is the concentration at which binding is half-saturated.
